In series [1] the target is T1, human calcitonin receptor (hCTR2) (Homo sapiens, UniProt P30988).
T1 construct: expressed in transfected cells
T1 sequence (P30988 25-474): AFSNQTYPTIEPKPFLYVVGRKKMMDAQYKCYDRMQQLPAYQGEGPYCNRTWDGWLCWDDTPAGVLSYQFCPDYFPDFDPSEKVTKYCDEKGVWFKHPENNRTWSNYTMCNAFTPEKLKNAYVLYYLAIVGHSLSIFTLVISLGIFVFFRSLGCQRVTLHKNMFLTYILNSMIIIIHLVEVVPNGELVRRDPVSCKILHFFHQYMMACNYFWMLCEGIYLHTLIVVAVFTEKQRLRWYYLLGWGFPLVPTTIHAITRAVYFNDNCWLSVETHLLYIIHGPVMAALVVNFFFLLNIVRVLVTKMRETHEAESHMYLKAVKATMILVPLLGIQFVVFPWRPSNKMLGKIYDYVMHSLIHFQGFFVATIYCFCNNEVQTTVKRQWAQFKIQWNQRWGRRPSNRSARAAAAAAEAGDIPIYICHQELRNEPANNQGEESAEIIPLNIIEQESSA
Briefly: hCTR2 assay: induction of cAMP (AlphaScreen cAMP Assay kit) in COS7 cells expressing hCTR2. In kind it is cell-based. An outline of the steps:
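cAMP induction was measured by AlphaScreen in COS7 cells stably expressing hCTR2 without RAMPs, after 15 min at 37° C with increasing peptide concentrations, 100 µM IBMX and 0.1% casein (Tyrode, pH 7.4). A 4-parameter logistic fit gave EC50 and % efficacy versus pramlintide.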
In general terms: Alpha assays give light when donor and acceptor beads are brought close together.

The nature of series [2]: Solubility assessment (turbidity absorbance at 325 nm). Type of series: physicochemical. The conditions noted are these: stock 2 mg/ml diluted 1:1, ambient temperature (typically 25°C), n=1; for Solubility, Acetate buffer pH 4: 100 mM acetate buffer pH 4.0; for Solubility, Acetate buffer pH 5: 100 mM acetate buffer pH 5.0; for Solubility, Histidine buffer pH 6: 100 mM histidine buffer pH 6.0; for Solubility, Histidine buffer pH 7: 100 mM histidine buffer pH 7.0; for Solubility, Phosphate buffer pH 6: 100 mM phosphate buffer pH 6.0; for Solubility, Phosphate buffer pH 7: 100 mM phosphate buffer pH 7.0; for Solubility, Phosphate buffer pH 7.5: 100 mM phosphate buffer pH7.5. Summed up:
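Read-out: turbidity as absorbance at 325 nm (280 nm also read), single samples, ambient temperature of typically 25°C. Samples were a 1:1 mix of 2 mg/ml stock (water, pH 2.5) with 100 mM acetate, histidine or phosphate buffers spanning pH 4.0–7.5. Cut-off: A325 ≤ 0.02 indicates ≥ 1 mg/ml.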

The results in this text go back to patent EP3046573B1, “AMYLIN ANALOGUES” (Zealand Pharma A/S, priority 2013, dated 2015).

pEC50: −log10 of the molar value. Read-outs that look alike come from different tables or passages of the source. Numbered stars: 1 amine (or outer) side, 2 acyl side, 3 side chain; on linkers, the order of the positions; unused ones are H or OH. Bridge positions count the residues as written; N and C are the ends. Square brackets hold non-standard residues; d marks the D form. Peptide text beside a SMILES is read from it. * marks the point of attachment. C20 diacid = O=C(O)CCCCCCCCCCCCCCCCCCC(=O)*; γGlu = O=C(O)[C@H](CCC(=O)[*:2])N[*:1]; NMeI = CC[C@H](C)[C@H](NC)C(=O)O; Sar = CNCC(=O)O

Take `CC[C@H](C)[C@@H](C(=O)N[C@@H](CC(C)C)C(=O)N[C@@H](CO)C(=O)N[C@@H](CO)C(=O)N[C@H](C(=O)N[C@@H](CC(N)=O)C(=O)N[C@H](C(=O)NCC(=O)N[C@@H](CO)C(=O)N[C@@H](CC(N)=O)C(=O)N[C@H](C(=O)N1CCC[C@H]1C(N)=O)[C@@H](C)O)C(C)C)[C@@H](C)O)N(C)C(=O)CN(C)C(=O)[C@H](Cc1ccccc1)NC(=O)[C@H](CC(N)=O)NC(=O)[C@H](CO)NC(=O)[C@H](CO)NC(=O)[C@H](Cc1c[nH]cn1)NC(=O)[C@H](Cc1c[nH]cn1)NC(=O)[C@H](CC(C)C)NC(=O)[C@H](Cc1ccccc1)NC(=O)[C@H](CCC(=O)O)NC(=O)[C@H](C)NC(=O)[C@H](CC(C)C)NC(=O)[C@H](CCCNC(=N)N)NC(=O)[C@H](CCC(N)=O)NC(=O)[C@@H](NC(=O)[C@H](C)NC(=O)[C@@H]1CSSC[C@H](NC(=O)[C@H](CCCNC(=N)N)NC(=O)CC[C@H](NC(=O)CCCCCCCCCCCCCCCCCCC(=O)O)C(=O)O)C(=O)N[C@@H](CC(N)=O)C(=O)N[C@@H]([C@@H](C)O)C(=O)N[C@@H](C)C(=O)N[C@@H]([C@@H](C)O)C(=O)N1)[C@@H](C)O` [Compound 38, [19CD]-isoGlu-RC()NTATC()ATQRLAEFLHHSSNF-Gly(Me)-Ile(Me)-LSSTNVGSNTP-NH2] ({C20 diacid-γGlu}-RCNTATCATQRLAEFLHHSSNF[Sar][NMeI]LSSTNVGSNTP-NH2; disulfide 2-7): in series [1], the pEC50 was 9.80. Also, in series [2], the “Solubility, Acetate buffer pH 4” value is listed as “II (II indicates solubility ≤ 1 mg/ml)”; the “Solubility, Acetate buffer pH 5” value is on record as “II (II indicates solubility ≤ 1 mg/ml)”; the “Solubility, Histidine buffer pH 6” value is on record as “II (II indicates solubility ≤ 1 mg/ml)”; the “Solubility, Histidine buffer pH 7” value is “II (II indicates solubility ≤ 1 mg/ml)”. In series [2], the “Solubility, Phosphate buffer pH 6” value was “II (II indicates solubility ≤ 1 mg/ml)”; the “Solubility, Phosphate buffer pH 7” value is “II (II indicates solubility ≤ 1 mg/ml)”; the “Solubility, Phosphate buffer pH 7.5” value is on record as “II (II indicates solubility ≤ 1 mg/ml)”.

For `CC[C@H](C)[C@@H](C(=O)N[C@@H](CC(C)C)C(=O)N[C@@H](CO)C(=O)N[C@@H](CO)C(=O)N[C@H](C(=O)N[C@@H](CC(N)=O)C(=O)N[C@H](C(=O)NCC(=O)N[C@@H](CO)C(=O)N[C@@H](CC(N)=O)C(=O)N[C@H](C(=O)N1CCC[C@H]1C(N)=O)[C@@H](C)O)C(C)C)[C@@H](C)O)N(C)C(=O)[C@H](C)NC(=O)CN(C)C(=O)[C@H](Cc1ccccc1)NC(=O)[C@H](CC(N)=O)NC(=O)[C@H](CC(N)=O)NC(=O)[C@H](CO)NC(=O)[C@H](CO)NC(=O)[C@H](Cc1c[nH]cn1)NC(=O)[C@H](CC(C)C)NC(=O)[C@H](Cc1ccccc1)NC(=O)[C@H](CCC(=O)O)NC(=O)[C@H](C)NC(=O)[C@H](CC(C)C)NC(=O)[C@H](CCCNC(=N)N)NC(=O)[C@H](CCC(N)=O)NC(=O)[C@@H](NC(=O)[C@H](C)NC(=O)[C@@H]1CSSC[C@H](NC(=O)[C@H](CCCNC(=N)N)NC(=O)CC[C@H](NC(=O)CCCCCCCCCCCCCCCCCCC(=O)O)C(=O)O)C(=O)N[C@@H](CC(N)=O)C(=O)N[C@@H]([C@@H](C)O)C(=O)N[C@@H](C)C(=O)N[C@@H]([C@@H](C)O)C(=O)N1)[C@@H](C)O` [Compound 39, [19CD]-isoGlu-RC()NTATC()ATQRLAEFLHSSNNF-Gly(Me)-A-Ile(Me)-LSSTNVGSNTP-NH2] ({C20 diacid-γGlu}-RCNTATCATQRLAEFLHSSNNF[Sar]A[NMeI]LSSTNVGSNTP-NH2; disulfide 2-7), the pEC50 in series [1] was 9.72. In series [2], the “Solubility, Acetate buffer pH 4” value was “SS (SS indicates solubility ≥ 1mg/ml)”; the “Solubility, Acetate buffer pH 5” value is recorded as “SS (SS indicates solubility ≥ 1mg/ml)”; the “Solubility, Histidine buffer pH 6” value is recorded as “SS (SS indicates solubility ≥ 1mg/ml)”; the “Solubility, Histidine buffer pH 7” value is “SS (SS indicates solubility ≥ 1mg/ml)”. In series [2], the “Solubility, Phosphate buffer pH 6” value was “SS (SS indicates solubility ≥ 1mg/ml)”; the “Solubility, Phosphate buffer pH 7” value is “SS (SS indicates solubility ≥ 1mg/ml)”; the “Solubility, Phosphate buffer pH 7.5” value is reported as “SS (SS indicates solubility ≥ 1mg/ml)”.

For the compound `CC[C@H](C)[C@@H](C(=O)N[C@@H](CC(C)C)C(=O)N[C@@H](CO)C(=O)N[C@@H](CO)C(=O)N[C@H](C(=O)N[C@@H](CC(N)=O)C(=O)N[C@H](C(=O)NCC(=O)N[C@@H](CO)C(=O)N[C@@H](CC(N)=O)C(=O)N[C@H](C(=O)N1CCC[C@H]1C(N)=O)[C@@H](C)O)C(C)C)[C@@H](C)O)N(C)C(=O)CN(C)C(=O)[C@H](Cc1ccccc1)NC(=O)[C@H](CC(N)=O)NC(=O)[C@H](CC(N)=O)NC(=O)[C@H](CO)NC(=O)[C@H](CO)NC(=O)[C@H](Cc1c[nH]cn1)NC(=O)[C@H](CC(C)C)NC(=O)[C@H](Cc1ccccc1)NC(=O)[C@H](CCC(=O)O)NC(=O)[C@H](C)NC(=O)[C@H](CC(C)C)NC(=O)[C@H](CCCNC(=N)N)NC(=O)[C@H](CCC(N)=O)NC(=O)[C@@H](NC(=O)[C@H](C)NC(=O)[C@@H]1CSSC[C@H](NC(=O)[C@H](CCCNC(=N)N)NC(=O)CC[C@H](NC(=O)CCCCCCCCCCCCCCCCCCC(=O)O)C(=O)O)C(=O)N[C@@H](CC(N)=O)C(=O)N[C@@H]([C@@H](C)O)C(=O)N[C@@H](C)C(=O)N[C@@H]([C@@H](C)O)C(=O)N1)[C@@H](C)O` [Compound 40, [19CD]-isoGlu-RC()NTATC()ATQRLAEFLHSSNNF-Gly(Me)-Ile(Me)-LSSTNVGSNTP-NH2] ({C20 diacid-γGlu}-RCNTATCATQRLAEFLHSSNNF[Sar][NMeI]LSSTNVGSNTP-NH2; disulfide 2-7), in series [1] (cAMP induction in COS7 cells expressing hCTR2, average of a minimum of 3 determinations, read-out: hCTR2 EC50), the pEC50 is 9.42. In addition, in series [2], the “Solubility, Acetate buffer pH 4” value is “SS (SS indicates solubility ≥ 1mg/ml)”; the “Solubility, Acetate buffer pH 5” value is “SS (SS indicates solubility ≥ 1mg/ml)”; the “Solubility, Histidine buffer pH 6” value was “SS (SS indicates solubility ≥ 1mg/ml)”; the “Solubility, Histidine buffer pH 7” value is on record as “SS (SS indicates solubility ≥ 1mg/ml)”. For the same compound, in series [2], the “Solubility, Phosphate buffer pH 6” value was “SS (SS indicates solubility ≥ 1mg/ml)”; the “Solubility, Phosphate buffer pH 7” value was “SS (SS indicates solubility ≥ 1mg/ml)”; the “Solubility, Phosphate buffer pH 7.5” value is reported as “SS (SS indicates solubility ≥ 1mg/ml)”.

Turning to `CC[C@H](C)[C@@H](C(=O)N[C@@H](CC(C)C)C(=O)N[C@@H](CO)C(=O)N[C@@H](CO)C(=O)N[C@H](C(=O)N[C@@H](CC(N)=O)C(=O)N[C@H](C(=O)NCC(=O)N[C@@H](CO)C(=O)N[C@@H](CC(N)=O)C(=O)N[C@H](C(=O)N1CCC[C@H]1C(N)=O)[C@@H](C)O)C(C)C)[C@@H](C)O)N(C)C(=O)[C@H](C)NC(=O)CN(C)C(=O)[C@H](Cc1ccccc1)NC(=O)[C@H](CC(N)=O)NC(=O)[C@H](CC(N)=O)NC(=O)[C@H](CO)NC(=O)[C@H](CO)NC(=O)[C@H](CC(C)C)NC(=O)[C@H](Cc1ccccc1)NC(=O)[C@H](CCC(=O)O)NC(=O)[C@H](C)NC(=O)[C@H](CC(C)C)NC(=O)[C@H](CCCNC(=N)N)NC(=O)[C@H](CCC(N)=O)NC(=O)[C@@H](NC(=O)[C@H](C)NC(=O)[C@@H]1CSSC[C@H](NC(=O)[C@H](CCCNC(=N)N)NC(=O)CC[C@H](NC(=O)CCCCCCCCCCCCCCCCCCC(=O)O)C(=O)O)C(=O)N[C@@H](CC(N)=O)C(=O)N[C@@H]([C@@H](C)O)C(=O)N[C@@H](C)C(=O)N[C@@H]([C@@H](C)O)C(=O)N1)[C@@H](C)O` [Compound 41, [19CD]-isoGlu-RC()NTATC()ATQRLAEFLSSNNF-Gly(Me)-A-Ile(Me)-LSSTNVGSNTP-NH2] ({C20 diacid-γGlu}-RCNTATCATQRLAEFLSSNNF[Sar]A[NMeI]LSSTNVGSNTP-NH2; disulfide 2-7), the pEC50 in series [1] is 10.15. Moreover, in series [2], the “Solubility, Acetate buffer pH 4” value is “SS (SS indicates solubility ≥ 1mg/ml)”; the “Solubility, Acetate buffer pH 5” value was “SS (SS indicates solubility ≥ 1mg/ml)”; the “Solubility, Histidine buffer pH 6” value is recorded as “SS (SS indicates solubility ≥ 1mg/ml)”; the “Solubility, Histidine buffer pH 7” value is “SS (SS indicates solubility ≥ 1mg/ml)”. Also, in series [2], the “Solubility, Phosphate buffer pH 6” value is recorded as “SS (SS indicates solubility ≥ 1mg/ml)”; the “Solubility, Phosphate buffer pH 7” value is reported as “SS (SS indicates solubility ≥ 1mg/ml)”; the “Solubility, Phosphate buffer pH 7.5” value is recorded as “SS (SS indicates solubility ≥ 1mg/ml)”.

For orientation: pEC50 means the negative decadic logarithm of the EC50, by convention in mol/L.
